Assay [1] has as its target T1, human RIP1 kinase domain (2-375) (Homo sapiens (Human), UniProt Q13546). The note with it: 50 nM enzyme, 50 μM ATP, 2 hours incubation.
Experimental: (§1) RIP1 Kinase Inhibition Assays (Biochemical Assay)
(§2) The ability of the receptor interacting protein kinase (RIPK1) to catalyze the hydrolysis of adenosine-5′-triphosphate (ATP) is monitored using the Transcreener ADP (adenosine-5′-diphosphate) assay (BellBrook Labs). Purified human RIP1 kinase domain (2-375) (50 nM) derived from a baculovirus-infected insect cell expression system is incubated with test compounds for 2 hours in 50 mM Hepes buffer (pH 7.5) containing 30 mM MgCl2, 1 mM dithiothreitol, 50 μM ATP, 0.002% Brij-35, and 0.5% dimethyl sulfoxide (DMSO). […] The tracer bound to the antibody is displaced by the ADP generated during the RIP1K reaction, which causes a decrease in fluorescence polarization that is measured by laser excitation at 633 nm with a FP microplate reader M1000. Fractional activity was plotted against test article concentration. Using Genedata Screener software (Genedata; Basel, Switzerland), the data were fit to the tight-binding apparent inhibition constant (Ki^app) Morrison equation [Williams, J. W. and Morrison, J. F. (1979) The kinetics of reversible tight-binding inhibition. […] The following equation was used to calculate fractional activity and Ki^app:
(§3) [formula] where [E]T and [I]T are the total concentrations of active enzyme and test article, respectively.
For assay [2], the target named is T1, human RIP1 kinase domain (2-375). The assay is described as follows: biochemical. As to conditions: 50 nM enzyme, 50 μM ATP, 2 hours incubation.
Experimental: as §1, §2, §3
[3] abbreviates: tight-binding apparent inhibition constant (Ki app, Morrison equation).
Where [4] appears, read: RIP1 kinase inhibition, tight-binding apparent Ki.

The structures appear in SMILES notation. Like-named read-outs stand apart in the source and are kept apart here.

T1 sequence (Q13546 2-375): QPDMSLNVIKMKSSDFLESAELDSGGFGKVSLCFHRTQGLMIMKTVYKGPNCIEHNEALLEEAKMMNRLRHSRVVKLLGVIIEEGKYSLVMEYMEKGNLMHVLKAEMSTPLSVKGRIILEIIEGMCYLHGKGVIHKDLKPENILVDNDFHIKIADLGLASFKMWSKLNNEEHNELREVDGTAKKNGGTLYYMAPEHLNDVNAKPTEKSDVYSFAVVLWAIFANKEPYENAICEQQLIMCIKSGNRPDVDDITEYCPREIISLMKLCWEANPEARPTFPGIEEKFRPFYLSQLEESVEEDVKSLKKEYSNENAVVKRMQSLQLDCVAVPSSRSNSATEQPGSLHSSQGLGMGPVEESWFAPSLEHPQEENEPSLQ

As to `CCC(=O)c1cc2n(n1)CC[C@@H]2c1ccccc1` (single isomer, unassigned) [Example 24], the Ki in assay [1] (setting [3]) was above 10000 nM.

Consider `O=C(c1nc2n(n1)C(c1ccccc1)CCC2)C1CC1` (stereo not drawn) [Example 145, cyclopropyl-(5-phenyl-5,6,7,8-tetrahydro-[1,2,4]triazolo[1,5-a]pyridin-2-yl)methanone], for which, in assay [1] (setting [4]), the Ki is 260 nM.

Consider `O=C(c1nc2n(n1)[C@H](c1ccccc1)C[C@@H]2Cl)C1CC1` (single isomer, unassigned) [Example 116], for which, in assay [1] (setting [4]), the Ki turned out to be 4 nM.

For `O=C(c1cc2n(n1)[C@H](c1ccccc1)C[C@@H]2F)C1CC1` (single isomer, unassigned) [Example 159], the Ki in assay [1] (setting [4]) turned out to be 5 nM.

Consider `O=C(c1nc2n(n1)[C@H](c1ccccc1)C[C@@H]2F)[C@H]1CCOC1` (racemic) [Example 131, [rac-(5S,7S)-7-fluoro-5-phenyl-6,7-dihydro-5H-pyrrolo[1,2-b][1,2,4]triazol-2-yl]-[rac-(3S)-tetrahydrofuran-3-yl]methanone], for which the Ki in assay [2] (setting [4]) was below 5 nM.

As to `CC1(C(=O)c2nc3n(n2)[C@H](c2ccccc2)C[C@@H]3F)COC1` (racemic) [Example 15, (rac-(5S,7S)-7-fluoro-5-phenyl-6,7-dihydro-5H-pyrrolo[1,2-b][1,2,4]triazol-2-yl)-(3-methyloxetan-3-yl)methanone], the Ki in assay [2] (setting [3]) is 30 nM.

Consider `O=C(c1cc2n(n1)[C@H](c1ccccc1)C[C@@H]2F)C1CC1` (racemic) [Example 78, cyclopropyl-[rac-(4S,6S)-4-fluoro-6-phenyl-5,6-dihydro-4H-pyrrolo[1,2-b]pyrazol-2-yl]methanone], for which, in assay [2] (setting [4]), the Ki came out at 20 nM.

`[2H][C@H]1C[C@@H](c2ccccc2)n2nc(C(=O)C3CC3)nc21` (single isomer, unassigned) [Example 111]: in assay [2] (setting [4]), the Ki was 8.2 nM.

With `O=C(c1nc2n(n1)[C@@H](c1ccccc1)C[C@@H]2F)C1CC1` (racemic) [Example 18, cyclopropyl-[rac-(5R,7S)-7-fluoro-5-phenyl-6,7-dihydro-5H-pyrrolo[1,2-b][1,2,4]triazol-2-yl]methanone], the Ki in assay [2] (setting [3]) was 235 nM.

For the compound `O=C(c1nc2n(n1)[C@H](c1ccccc1F)CC2)C1CC1` (racemic) [Example 63, cyclopropyl-[rac-(5S)-5-(2-fluorophenyl)-6,7-dihydro-5H-pyrrolo[1,2-b][1,2,4]triazol-2-yl]methanone], the Ki in assay [2] (setting [4]) is 10 nM.

With `O=C(c1ccccn1)c1nc2n(n1)[C@H](c1ccccc1)C[C@@H]2F` (racemic) [Example 33, (rac-(5S,7S)-7-fluoro-5-phenyl-6,7-dihydro-5H-pyrrolo[1,2-b][1,2,4]triazol-2-yl)-(2-pyridyl)methanone], the Ki in assay [2] (setting [3]) was 2360 nM.

With `Cn1cc(C(=O)c2nc3n(n2)[C@@H](c2ccccc2)C[C@H]3F)cn1` (stereo in doubt) [Example 39, (1-methylpyrazol-4-yl)-[rac-(5R,7R)-7-fluoro-5-phenyl-6,7-dihydro-5H-pyrrolo[1,2-b][1,2,4]triazol-2-yl]methanone], in assay [2] (setting [3]), the Ki stood at 225 nM.

As for `CC(F)(F)[C@@H]1C[C@H](F)c2nc(C(=O)C3CC3)nn21` (racemic) [Example 122, cyclopropyl-[rac-(5S,7S)-5-(1,1-difluoroethyl)-7-fluoro-6,7-dihydro-5H-pyrrolo[1,2-b][1,2,4]triazol-2-yl]methanone], the Ki in assay [2] (setting [4]) was determined as 360 nM.

`O=C(c1nc2n(n1)[C@H](c1ccccc1)C[C@@H]2F)C1CCCC1` (racemic) [Example 36, cyclopentyl--(rac-(5S,7S)-7-fluoro-5-phenyl-6,7-dihydro-5H-pyrrolo[1,2-b][1,2,4]triazol-2-yl)methanone]: in assay [2] (setting [3]), the Ki was found to be 18.8 nM.

With `[2H][C@]1(Cl)C[C@@H](c2ccccc2)n2nc(C(=O)C3CC3)nc21` (racemic) [Example 119, cyclopropyl-[rac-(5S,7S)-7-chloro-7-deuterio-5-phenyl-5,6-dihydropyrrolo[1,2-b][1,2,4]triazol-2-yl]methanone], the Ki in assay [2] (setting [4]) came to 36 nM.

On to `O=C(c1nc2n(n1)[C@@H](c1ccccc1)C[C@H]2F)C1CC1` (stereo in doubt) [Example 35, cyclopropyl-[rac-(5R,7R)-7-fluoro-5-phenyl-6,7-dihydro-5H-pyrrolo[1,2-b][1,2,4]triazol-2-yl]methanone], for which, in assay [2] (setting [3]), the Ki is above 9400 nM.

On to `CC(C)(C#N)C(=O)c1nc2n(n1)[C@H](c1ccccc1)C[C@@H]2F` (racemic) [Example 22, 3-(rac-(5S,7S)-7-fluoro-5-phenyl-6,7-dihydro-5H-pyrrolo[1,2-b][1,2,4]triazol-2-yl)-2,2-dimethyl-3-oxo-propanenitrile], for which the Ki in assay [2] (setting [3]) is 33.1 nM.

With `O=C(c1nc2n(n1)[C@@H](c1ccccc1)C[C@H]2F)C1CCC1` (racemic) [Example 43, cyclobutyl-[rac-(5R,7R)-7-fluoro-5-phenyl-6,7-dihydro-5H-pyrrolo[1,2-b][1,2,4]triazol-2-yl]methanone], in assay [2] (setting [3]), the Ki turned out to be 12 nM.

As to `O=C(c1nc2n(n1)[C@H](c1ccccc1)C[C@@H]2F)[C@]12COC[C@H]1C2` (racemic) [Example 144, [rac-(5S,7S)-7-fluoro-5-phenyl-6,7-dihydro-5H-pyrrolo[1,2-b][1,2,4]triazol-2-yl]-[rac-(1S,5S)-3-oxabicyclo[3.1.0]hexan-1-yl]methanone], the Ki in assay [2] (setting [4]) stood at 230 nM.

`O=C(CC(F)(F)F)c1nc2n(n1)[C@@H](c1ccccc1)C[C@H]2F` (racemic) [Example 29, 3,3,3-trifluoro-1-[rac-(5R,7R)-7-fluoro-5-phenyl-6,7-dihydro-5H-pyrrolo[1,2-b][1,2,4]triazol-2-yl]propan-1-one]: the Ki in assay [2] (setting [3]) was found to be 134 nM.

In the case of `COCC(C)(C)C(=O)c1nc2n(n1)[C@H](c1ccccc1)C[C@@H]2F` (racemic) [Example 133, 3-methoxy-2,2-dimethyl-1-[rac-(5S,7S)-7-fluoro-5-phenyl-6,7-dihydro-5H-pyrrolo[1,2-b][1,2,4]triazol-2-yl]propan-1-one], the Ki in assay [2] (setting [4]) was below 5 nM.

For the compound `O=C(c1nc2n(n1)[C@H](c1ccccc1)C[C@@H]2F)C1(C(F)(F)F)CC1` (racemic) [Example 14, (rac-(5S,7S)-7-fluoro-5-phenyl-6,7-dihydro-5H-pyrrolo[1,2-b][1,2,4]triazol-2-yl)-[1-(trifluoromethyl)cyclopropyl]methanone], the Ki in assay [2] (setting [3]) was determined as 11.2 nM.

`CCC(=O)c1nc2n(n1)[C@@H](c1ccccc1)C[C@@H]2F` (racemic) [Example 13, 1-[rac-(5R,7S)-7-fluoro-5-phenyl-6,7-dihydro-5H-pyrrolo[1,2-b][1,2,4]triazol-2-yl]propan-1-one]: in assay [2] (setting [3]), the Ki stood at 193 nM.

Turning to `CCC1(C(=O)c2nc3n(n2)[C@H](c2ccccc2)C[C@@H]3F)CC1` (racemic) [Example 125, (1-ethylcyclopropyl)-[rac-(5S,7S)-7-fluoro-5-phenyl-6,7-dihydro-5H-pyrrolo[1,2-b][1,2,4]triazol-2-yl]methanone], the Ki in assay [2] (setting [4]) amounted to 4 nM.

As for `O=C(CC1CCCCO1)c1nc2n(n1)[C@H](c1ccccc1)C[C@@H]2F` (mixture of isomers) [Example 135, 1-[rac-(5S,7S)-7-fluoro-5-phenyl-6,7-dihydro-5H-pyrrolo[1,2-b][1,2,4]triazol-2-yl]-2-tetrahydropyran-2-yl-ethanone], in assay [2] (setting [4]), the Ki was 180 nM.

On to `C[C@]1(C(=O)c2nc3n(n2)[C@H](c2ccccc2)C[C@@H]3F)CCOC1` (racemic) [Example 138, [rac-(5S,7S)-7-fluoro-5-phenyl-6,7-dihydro-5H-pyrrolo[1,2-b][1,2,4]triazol-2-yl]-[rac-(3S)-3-methyltetrahydrofuran-3-yl]methanone], for which, in assay [2] (setting [4]), the Ki is below 5 nM.

For `O=C(c1nc2n(n1)[C@H](c1ccccc1)C[C@@H]2F)c1cccs1` (racemic) [Example 41, (rac-(5S,7S)-7-fluoro-5-phenyl-6,7-dihydro-5H-pyrrolo[1,2-b][1,2,4]triazol-2-yl)-(2-thienyl)methanone], the Ki in assay [2] (setting [3]) was 26.7 nM.

For `O=C(c1nc2n(n1)[C@H](c1ccccc1)C[C@@H]2F)[C@H]1C[C@@H]1C(F)(F)F` (racemic) [Example 160, [rac-(5S,7S)-7-fluoro-5-phenyl-6,7-dihydro-5H-pyrrolo[1,2-b][1,2,4]triazol-2-yl]-[rac-(1S,2S)-2-(trifluoromethyl)cyclopropyl]methanone], the Ki in assay [2] (setting [4]) worked out at 3 nM.

`O=C(c1nc2n(n1)[C@H](c1ccccc1)C[C@@H]2F)C1(F)CC1` (racemic) [Example 53, (1-fluorocyclopropyl)-(rac-(5S,7S)-7-fluoro-5-phenyl-6,7-dihydro-5H-pyrrolo[1,2-b][1,2,4]triazol-2-yl)methanone]: in assay [2] (setting [3]), the Ki is 22.4 nM.

In the case of `O=C(c1nc2n(n1)[C@H](c1ccccc1)C[C@@H]2F)C1CCCOC1` (mixture of isomers) [Example 127, [rac-(5S,7S)-7-fluoro-5-phenyl-6,7-dihydro-5H-pyrrolo[1,2-b][1,2,4]triazol-2-yl]-tetrahydropyran-3-yl-methanone], the Ki in assay [2] (setting [4]) was 16 nM.

With `CC1(C(=O)c2nc3n(n2)[C@H](c2ccccc2)C[C@@H]3F)CC1` (racemic) [Example 26, (rac-(5S,7S)-7-fluoro-5-phenyl-6,7-dihydro-5H-pyrrolo[1,2-b][1,2,4]triazol-2-yl)-(1-methylcyclopropyl)methanone], the Ki in assay [2] (setting [3]) was 38 nM.

In the case of `O=C(c1nc2n(n1)[C@H](c1ccccc1)C[C@@H]2F)[C@@H]1C[C@H]1C(F)(F)F` (racemic) [Example 161, [rac-(5S,7S)-7-fluoro-5-phenyl-6,7-dihydro-5H-pyrrolo[1,2-b][1,2,4]triazol-2-yl]-[rac-(1R,2R)-2-(trifluoromethyl)cyclopropyl]methanone], the Ki in assay [2] (setting [4]) was determined as 50 nM.

As to `O=C(c1nc2n(n1)[C@H](c1ccccc1)C[C@@H]2F)[C@H](O)C(F)(F)F` (racemic) [Example 134, rac-(2S)-3,3,3-trifluoro-2-hydroxy-1-[rac-(5S,7S)-7-fluoro-5-phenyl-6,7-dihydro-5H-pyrrolo[1,2-b][1,2,4]triazol-2-yl]propan-1-one], the Ki in assay [2] (setting [4]) is 220 nM.

Source of the values: patent US11098058B2, “Bicyclic ketone compounds and methods of use thereof” (Genentech, Inc., priority 2017, dated 2021).
